Patent US20250129021A1, “SMALL MOLECULE PROTEIN SYNTHESIS MODULATORS” (Interdict Bio, Inc., priority 2023, published 2025)

Experiments:
Assay type in all cases: biochemical
MYC = assay: In vitro transcription-translation (IVTT) assay, MYC reporter; details: IVTT assay, HeLa S3 lysate, MYC reporter, normalized sfGFP/mCherry ratio; half-log dilutions 30 μM-0.1 μM, 2 hrs at 30° C.
In short: (§1)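 Reporter: mCherry, P2A, then 3×FLAG-target peptide-sfGFP fusion, IRES-initiated; HeLa S3 lysate IVTT; cpd dilutions 30 μM−0.1 μM half-log in 100% DMSO (dilution-plate conc); DNA added last; 2 h, 30° C; PBS quench.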

CCNTB1 = assay: In vitro transcription-translation (IVTT) assay, CCNTB1 reporter; details: HeLa S3 lysate, 2 hrs at 30° C.
In short: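 IC50 fitted from the sfGFP/mCherry fluorescence ratio, normalized to no-drug control after no-DNA background subtraction. Reactions ran 2 h at 30° C in HeLa S3 cell lysate with reporter plasmid DNA and half-log compound titrations (30 μM−0.1 μM, in DMSO).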

CCND1 = assay: In vitro transcription-translation (IVTT) assay, CCND1 reporter; details: IVTT, HeLa S3 lysate, 2 hrs at 30° C.
In short: as §1

MCL-1 = assay: In vitro transcription-translation (IVTT) assay, MCL-1 reporter; details: IVTT, HeLa S3 lysate, 2 hrs at 30° C.; read-out: MCL1 IC50
In short: as §1

SMILES | IC50 (CCNTB1) [µM] | IC50 (CCND1) [µM] | IC50 (MCL-1) [µM] | IC50 (MYC) [µM]
O=C(NCc1cccc(F)c1)O[C@@H]1[C@@H](O)CN[C@@H]1Cc1ccc(OC(F)(F)F)cc1 [V190509, (2R,3S,4S)-4-hydroxy-2-(4-(trifluoromethoxy)benzyl)pyrrolidin-3-yl (3-fluorobenzyl)carbamate] | 20 to 30 | > 30 | > 30 | > 30
O=C(NCc1cccc(F)c1)O[C@@H]1[C@@H](O)CN[C@@H]1Cc1ccc(-c2cscn2)cc1 [V190511, (2R,3S,4S)-4-hydroxy-2-{[4-(1,3-thiazol-4-yl)phenyl]methyl}pyrrolidin-3-yl N-[(3-fluorophenyl)methyl]carbamate] | < 10 | < 10 | < 10 | < 10
O=C(NCc1cccc(F)c1)O[C@@H]1[C@@H](O)CN[C@@H]1Cc1ccc(-c2ncco2)cc1 [V190514, (2R,3S,4S)-4-hydroxy-2-{[4-(1,3-oxazol-2-yl)phenyl]methyl}pyrrolidin-3-yl N-[(3-fluorophenyl)methyl]carbamate] | < 10 | < 10 | < 10 | < 10
O=C(NCc1cccc(F)c1)O[C@@H]1[C@@H](O)CN[C@@H]1Cc1ccc(-n2ccnc2)cc1 [V190515, (2R,3S,4S)-4-hydroxy-2-{[4-(imidazol-1-yl)phenyl]methyl}pyrrolidin-3-yl N-[(3-fluorophenyl)methyl]carbamate] | < 10 | < 10 | < 10 | < 10
O=C(NCc1cccc(F)c1)O[C@@H]1[C@@H](O)CN[C@@H]1Cc1ccc(C2CC2)cc1 [V190518, (2R,3S,4S)-2-[(4-cyclopropylphenyl)methyl]-4-hydroxypyrrolidin-3-yl N-[(3-fluorophenyl)methyl]carbamate] | < 10 | 20 to 30 | 10 to 20 | 10 to 20
COc1ccc(C[C@H]2NC[C@H](O)[C@H]2OC(=O)NCc2ccccc2F)cc1 [V190520, (2R,3S,4S)-4-hydroxy-2-[(4-methoxyphenyl)methyl]pyrrolidin-3-yl N-[(2-fluorophenyl)methyl]carbamate] | < 10 | 10 to 20 | < 10 | < 10

Now from value to compound, other results behind:

IC50 (CCNTB1) [µM] | IC50 (CCND1) [µM] | IC50 (MCL-1) [µM] | SMILES | IC50 (MYC) [µM]
10 to 20 | > 30 | 20 to 30 | COc1ccc(C[C@H]2NC[C@H](O)[C@H]2OC(=O)NCc2c(F)cccc2F)cc1 [V190521, (2R,3S,4S)-4-hydroxy-2-[(4-methoxyphenyl)methyl]pyrrolidin-3-yl N-[(2,6-difluorophenyl)methyl]carbamate] | 20 to 30
< 10 | < 10 | < 10 | COc1ccc(C[C@H]2NC[C@H](O)[C@H]2OC(=O)NCc2ccnc(F)c2)cc1 [V190522, (2R,3S,4S)-4-hydroxy-2-[(4-methoxyphenyl)methyl]pyrrolidin-3-yl N-[(2-fluoropyridin-4-yl)methyl]carbamate] | < 10
> 30 | > 30 | > 30 | COc1ccc(C[C@H]2NC[C@H](O)[C@H]2OC(=O)NC2CC3(CCNC3)C2)cc1 (stereo partly drawn) [V190538, (2R,3S,4S)-4-hydroxy-2-[(4-methoxyphenyl)methyl]pyrrolidin-3-yl N-{6-azaspiro[3.4]octan-2-yl}carbamate] | > 30
< 10 | < 10 | < 10 | O=C(NCc1cccc(F)c1)O[C@@H]1[C@@H](O)CN[C@@H]1Cc1ccc(-c2cncs2)cc1 [V190546, (2R,3S,4S)-4-hydroxy-2-{[4-(1,3-thiazol-5-yl)phenyl]methyl}pyrrolidin-3-yl N-[(3-fluorophenyl)methyl]carbamate] | < 10
< 10 | 20 to 30 | < 10 | CC(F)(F)c1ccc(C[C@H]2NC[C@H](O)[C@H]2OC(=O)NCc2cccc(F)c2)cc1 [V190547, (2R,3S,4S)-2-{[4-(1,1-difluoroethyl)phenyl]methyl}-4-hydroxypyrrolidin-3-yl N-[(3-fluorophenyl)methyl]carbamate] | < 10
